Measurements taken from publication PMC11864037 (RSC Advances, 2025).
Read-outs that look alike come from different tables or passages of the source.

What was measured:
[1] = MTT cytotoxic assay in Vero-E6 cells; assay type: cell-based; details: African green monkey
SARS-CoV-2 M^pro = SARS-CoV-2 M^pro (Severe acute respiratory syndrome coronavirus 2, UniProt P0DTD1); experiment: biochemical; details: for inhibition against M^pro: concentration not given
SARS-CoV-2 = details: cited from earlier work
M^pro = details: repurposed drug; cited from earlier work

| Structure (SMILES) | IC50 (SARS-CoV-2 M^pro) | further results |
| --- | --- | --- |
| CS(=O)(=O)n1cc2c(n1)CN(CC(=O)SC1=NC(c3ccc(C(F)(F)F)cc3)C(C(=O)N[C@@H](Cc3ccc(O)cc3)C(=O)O)=C(C(F)(F)F)N1)C2 (stereo partly drawn) [12i, (2-((2-(2-(Methylsulfonyl)-2,6-dihydropyrrolo[3,4-c]pyrazol-5(4H)-yl)acetyl)thio)-6-(trifluoromethyl)-4-(4-(trifluoromethyl)phenyl)-1,4-dihydropyrimidine-5-carbonyl)-L-tyrosine] |  | CC50 at 48 h [1]: 243 µM |
| O=C(N[C@@H](Cc1ccc(O)cc1)C(=O)O)C1=C(C(F)(F)F)NC(=S)NC1c1ccc(C(F)(F)F)cc1 (stereo partly drawn) [8e] | 25.3 µM |  |
| O=C(Nc1ccc(S(=O)(=O)O)cc1)C1=C(C(F)(F)F)NC(=S)NC1c1ccc(C(F)(F)F)cc1 (stereo not drawn) [8c] | 28.2 µM |  |
| CC(C)(C)[C@H](NC(=O)C(F)(F)F)C(=O)N1C[C@H]2[C@@H]([C@H]1C(=O)N[C@H](C#N)C[C@@H]1CCNC1=O)C2(C)C [nirmatrelvir] |  | EC50 (SARS-CoV-2; read-out: antiviral activity EC50): 0.074 µM |
| COC(=O)c1ccc(C2N=C(SC(=O)CN3CCn4c(nnc4C(F)(F)F)C3)NC(C(F)(F)F)=C2C(=O)N[C@@H](Cc2c[nH]cn2)C(=O)O)cc1 (stereo partly drawn) [12l, (4-(4-(Methoxycarbonyl)phenyl)-6-(trifluoromethyl)-2-((2-(3-(trifluoromethyl)-5,6-dihydro-[1,2,4]triazolo[4,3-a]pyrazin-7(8H)-yl)acetyl)thio)-1,4-dihydropyrimidine-5-carbonyl)-L-histidine] | 0.054 µM | inhibition against M^pro (SARS-CoV-2 M^pro): over 50%; CC50 at 48 h [1]: 198 µM |
| O=C(O)CC[C@H](NC(=O)C1=C(C(F)(F)F)NC(=S)NC1c1ccc(C(F)(F)F)cc1)C(=O)O (stereo partly drawn) [8a] | 23.2 µM |  |
| Cn1cnc(Cn2c(=O)[nH]/c(=N\c3cc4cn(C)nc4cc3Cl)n(Cc3cc(F)c(F)cc3F)c2=O)n1 [ensitrelvir] |  | EC50 (SARS-CoV-2): 0.37 µM |
| O=C(O)CC[C@H](NC(=O)C1=C(C(F)(F)F)NC(SC(=O)CN2CCn3c(nnc3C(F)(F)F)C2)=NC1c1ccc(C(F)(F)F)cc1)C(=O)O (stereo partly drawn) [12a, (6-(Trifluoromethyl)-2-((2-(3-(trifluoromethyl)-5,6-dihydro-[1,2,4]triazolo[4,3-a]-pyrazin-7(8H)-yl)acetyl)thio)-4-(4 (trifluoromethyl)phenyl)-1,4-dihydropyrimidine-5-carbonyl)-L-glutamic acid] | 0.15 µM |  |
| CS(=O)(=O)n1cc2c(n1)CN(CC(=O)SC1=NC(c3ccc([N+](=O)[O-])cc3)C(C(=O)Nc3ccc(S(=O)(=O)O)cc3)=C(C(F)(F)F)N1)C2 (stereo not drawn) [12k, 4-(2-((2-(2-(Methylsulfonyl)-2,6-dihydropyrrolo[3,4-c]pyrazol-5(4H)-yl)acetyl)thio)-4-(4-nitrophenyl)-6-(trifluoromethyl)-1,4-dihydropyrimidine-5-carboxamido)benzene-sulfonic acid] | 0.146 µM | CC50 at 48 h [1]: 239 µM |
| O=C(N[C@@H](Cc1c[nH]cn1)C(=O)O)C1=C(C(F)(F)F)NC(=S)NC1c1ccc(C(F)(F)F)cc1 (stereo partly drawn) [8d] | 30.7 µM |  |
| NC1CCCN(CC(=O)SC2=NC(c3ccc(C(F)(F)F)cc3)C(C(=O)N[C@@H](Cc3ccc(O)cc3)C(=O)O)=C(C(F)(F)F)N2)C1 (stereo partly drawn) [12g, (2-((2-(3-Aminopiperidin-1-yl)acetyl)thio)-6-(trifluoromethyl)-4-(4-(trifluoromethyl)-phenyl)-1,4-dihydropyrimidine-5-carbonyl)-L-tyrosine] | 0.21 ± 0.01 µM |  |
| COC(=O)c1ccc(C2NC(=S)NC(C(F)(F)F)=C2C(=O)N[C@@H](Cc2c[nH]cn2)C(=O)O)cc1 (stereo partly drawn) [8h] | 34.9 µM |  |
| O=C(O)CC[C@H](NC(=O)C1=C(C(F)(F)F)NC(=S)NC1c1ccc([N+](=O)[O-])cc1)C(=O)O (stereo partly drawn) [8f] | 36.8 µM |  |
| CS(=O)(=O)n1cc2c(n1)CN(CC(=O)SC1=NC(c3ccc([N+](=O)[O-])cc3)C(C(=O)N[C@@H](CCC(=O)O)C(=O)O)=C(C(F)(F)F)N1)C2 (stereo partly drawn) [12j, (2-((2-(2-(Methylsulfonyl)-2,6-dihydropyrrolo[3,4-c]pyrazol-5(4H)-yl)acetyl)thio)-4-(4-nitrophenyl)-6-(trifluoromethyl)-1,4-dihydropyrimidine-5-carbonyl)-L-glutamic acid] | 0.063 µM | inhibition against M^pro (SARS-CoV-2 M^pro): over 50%; CC50 at 48 h [1]: 211 µM |
| O=C(O)C[C@H](NC(=O)C1=C(C(F)(F)F)NC(=S)NC1c1ccc(C(F)(F)F)cc1)C(=O)O (stereo partly drawn) [8b] | 44.7 ± 1.36 µM |  |
| O=C(CN1CCn2c(nnc2C(F)(F)F)C1)SC1=NC(c2ccc(C(F)(F)F)cc2)C(C(=O)N[C@@H](Cc2c[nH]cn2)C(=O)O)=C(C(F)(F)F)N1 (stereo partly drawn) [12d, (6-(Trifluoromethyl)-2-((2-(3-(trifluoromethyl)-5,6-dihydro-[1,2,4]triazolo[4,3-a]pyrazin-7(8H)-yl)acetyl)thio)-4-(4-(trifluoromethyl)phenyl)-1,4-dihydropyrimidine-5-carbonyl)histidine] | 14.4 µM |  |
| CC(C)(C)NC(=O)N[C@H](C(=O)N1C[C@H]2[C@@H]([C@H]1C(=O)NC(CC1CCC1)C(=O)C(N)=O)C2(C)C)C(C)(C)C (stereo partly drawn) [boceprevir] |  | IC50 (M^pro): 4.13 µM |
| O=C(CN1CCn2c(nnc2C(F)(F)F)C1)SC1=NC(c2ccc(C(F)(F)F)cc2)C(C(=O)N[C@@H](Cc2ccc(O)cc2)C(=O)O)=C(C(F)(F)F)N1 (stereo partly drawn) [12e, (6-(Trifluoromethyl)-2-((2-(3-(trifluoromethyl)-5,6-dihydro-[1,2,4]triazolo[4,3-a]-pyrazin-7(8H)-yl)acetyl)thio)-4-(4-(trifluoromethyl)phenyl)-1,4-dihydropyrimidine-5-carbonyl)-L-tyrosine] | 0.73 ± 0.04 µM |  |
| CS(=O)(=O)n1cc2c(n1)CN(CC(=O)SC1=NC(c3ccc(C(F)(F)F)cc3)C(C(=O)N[C@@H](Cc3c[nH]cn3)C(=O)O)=C(C(F)(F)F)N1)C2 (stereo partly drawn) [12h, (2-((2-(2-(Methylsulfonyl)-2,6-dihydropyrrolo[3,4-c]pyrazol-5(4H)-yl)acetyl)thio)-6-(trifluoromethyl)-4-(4-(trifluoromethyl)phenyl)-1,4-dihydropyrimidine-5-carbonyl)histidine] | 16.3 µM |  |
